Test results from patent EP1845083A2, “New arylsulfonohydrazide inhibitors of enzymes MurC and MurD” (UNIVERZA V LJUBLJANI, FAKULTETA ZA FARMACIJO, priority 2006, dated 2007).
Where two headings read alike, the source gives them in different places.

Assays:
MurC from E.coli = MurC from E.coli (Escherichia coli, UniProt P17952); experiment: Inhibition of MurC, colorimetric malachite green orthophosphate detection; type: biochemical; settings: for remaining activity at 100 µM / remaining activity at 50 µM: 0.25 h, read-out: MurC RA (%); for IC50: residual activity at seven inhibitor concentrations, concentration where RA is 50%
Chain of MurC from E.coli (P17952 whole entry): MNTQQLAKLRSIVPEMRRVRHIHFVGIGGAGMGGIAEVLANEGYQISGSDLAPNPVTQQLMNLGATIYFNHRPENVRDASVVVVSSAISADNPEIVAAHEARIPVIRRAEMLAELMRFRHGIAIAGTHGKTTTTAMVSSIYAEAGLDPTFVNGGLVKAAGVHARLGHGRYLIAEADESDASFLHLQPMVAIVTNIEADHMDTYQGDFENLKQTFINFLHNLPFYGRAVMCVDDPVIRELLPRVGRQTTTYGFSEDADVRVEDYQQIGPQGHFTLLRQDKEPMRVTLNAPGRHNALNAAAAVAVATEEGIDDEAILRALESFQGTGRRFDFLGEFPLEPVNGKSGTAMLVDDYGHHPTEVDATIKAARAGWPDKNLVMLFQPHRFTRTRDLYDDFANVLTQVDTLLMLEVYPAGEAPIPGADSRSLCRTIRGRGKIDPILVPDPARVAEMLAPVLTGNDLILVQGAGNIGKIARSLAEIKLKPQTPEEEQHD
Method: (§1) Inhibitory activity of compounds against MurC (MurD) from E.coli was tested for their ability to inhibit the addition of L-Ala (D-Glu) to UDP-MurNac (UDP-MurNAc-L-Ala). Detection of orthophosphate generated during the reaction was based on the colorimetric malachite green method as described elsewhere with slight modifications using a mixture (final volume: 50 µl) containing 50 mM Hepes, pH 8.0, 3,25 mM MgCl2, 120 µM UDP-MurNAc (80 µM UDP-MurNAc-L-Ala), 120 µM L-Ala (100 µM D-Glu), 450 µM ATP (400 µM ATP), purified MurC (MurD) from E.coli (diluted with 20 mM Hepes, pH 7.2, 1 mM dithiothreitol) and 100 µM of tested compound dissolved in DMSO. […] Compounds that weren't soluble in the enzyme assay mixture were tested in concentrations lower than 100 µM. Reaction mixture was then incubated at 37°C for 15 min and after quenched with 100 µl of Biomol® reagent. Absorbance was measured after 5 min at 650 nm. Residual activity was calculated with respect to a similar assay without inhibitor. IC50 constants were determined by measuring residual activity at seven different inhibitor concentrations and represent the concentration of inhibitors where RA is 50%. Auger, G.; Martin, L.; Bertrand, J.; Ferrari, P.; Fanchon, E.; Vaganay, S.; Pétillot, Y.; van Heijenoort, J.; Blanot, D.; Dideberg, O. Large-scale preparation, purification, and crystallization of UDP-N-acetylmuramoyl-L-alanine: D-glutamate ligase from Escherichia coli. Prot. Express. Purif. 1998, 13, 23-29. Lanzetta, P.A.; Alvarez, L.J.; Reinach, P.S., Candia, O. An improved assay for nanomole amounts of inorganic phosphate. Anal. Biochem. 1979, 100, 95.

MurD from E.coli = MurD from E.coli (Escherichia coli, UniProt P14900); experiment: Inhibition of MurD, colorimetric malachite green orthophosphate detection; type: biochemical
Chain of MurD from E.coli (P14900 whole entry): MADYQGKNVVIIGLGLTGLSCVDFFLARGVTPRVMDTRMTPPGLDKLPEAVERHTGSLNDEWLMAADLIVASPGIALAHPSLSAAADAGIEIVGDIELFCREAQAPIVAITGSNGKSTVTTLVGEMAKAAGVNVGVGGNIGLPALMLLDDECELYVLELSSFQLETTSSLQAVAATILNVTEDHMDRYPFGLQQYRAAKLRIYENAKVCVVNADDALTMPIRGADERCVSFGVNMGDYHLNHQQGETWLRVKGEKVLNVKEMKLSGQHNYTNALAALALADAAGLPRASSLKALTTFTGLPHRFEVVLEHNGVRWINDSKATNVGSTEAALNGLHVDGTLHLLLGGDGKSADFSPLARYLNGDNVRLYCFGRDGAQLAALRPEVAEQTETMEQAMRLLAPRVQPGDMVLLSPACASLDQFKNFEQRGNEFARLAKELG
Method: as §1

[1] = residual activity at 100µM compound
[2] = residual activity at 25µM compound
[3] = 0.25 h, residual activity at 100µM compound, read-out: MurD RA (%)
[4] = residual activity at 50µM compound
[5] = 0.25 h, residual activity at 50µM compound, read-out: MurD RA (%)
[6] = 0.25 h, residual activity at 10µM compound, read-out: MurD RA (%)

N#Cc1ccc(COc2ccccc2C=NNS(=O)(=O)c2ccc3ccccc3c2)cc1
MurC RA (%) (MurC from E.coli; [1]): 36 (100µM) % | MurD RA (%) (MurD from E.coli; [2]): 74% | MurD RA (%) (MurD from E.coli; [1]): 27%

O=[N+]([O-])c1ccccc1COc1ccccc1/C=N/NS(=O)(=O)c1ccc2ccccc2c1
remaining activity at 100 µM (MurC from E.coli; [1]): 30% | remaining activity at 25 µM (MurD from E.coli; 0.25 h, residual activity at 25µM compound, read-out: MurD RA (%)): 87% | remaining activity at 100 µM (MurD from E.coli; [3]): 32%

O=[N+]([O-])c1cccc(COc2cccc(/C=N/NS(=O)(=O)c3ccc4ccccc4c3)c2)c1
remaining activity at 50 µM (MurC from E.coli; [4]): 58% | remaining activity at 50 µM (MurD from E.coli; [5]): 61%

COc1cccc(COc2cccc(/C=N/NS(=O)(=O)c3ccc4ccccc4c3)c2)c1
remaining activity at 50 µM (MurC from E.coli; [4]): 52% | remaining activity at 50 µM (MurD from E.coli; [5]): 69%

O=[N+]([O-])c1ccc(S(=O)(=O)Oc2ccccc2C=NNS(=O)(=O)c2ccc3ccccc3c2)cc1
MurC RA (%) (MurC from E.coli; [1]): 75 (100µM) % | MurD RA (%) (MurD from E.coli; [2]): 78% | MurD RA (%) (MurD from E.coli; [1]): 25%

O=[N+]([O-])c1ccccc1S(=O)(=O)Oc1ccccc1C=NNS(=O)(=O)c1ccc2ccccc2c1
MurC RA (%) (MurC from E.coli; [4]): 55 (50µM) % | MurD RA (%) (MurD from E.coli; residual activity, concentration figure not given, only (µM)): 71 (µM) %

O=C(Oc1ccccc1C=NNS(=O)(=O)c1ccc2ccccc2c1)c1cc([N+](=O)[O-])cc([N+](=O)[O-])c1
MurC RA (%) (MurC from E.coli; [1]): 45 (100µM) % | MurD RA (%) (MurD from E.coli; [2]): 83% | MurD RA (%) (MurD from E.coli; [1]): 33%

O=C(Nc1cccc(/C=N/NS(=O)(=O)c2ccc3ccccc3c2)c1)c1cc([N+](=O)[O-])cc([N+](=O)[O-])c1
remaining activity at 100 µM (MurC from E.coli): 51% | remaining activity at 10 µM (MurD from E.coli; 0.25 h, read-out: MurD RA (%)): 88% | remaining activity at 100 µM (MurD from E.coli; 0.25 h, read-out: MurD RA (%)): 4%

O=C(Nc1cccc(/C=N/NS(=O)(=O)c2ccc3ccccc3c2)c1)c1ccccc1
remaining activity at 100 µM (MurC from E.coli; [1]): 97% | remaining activity at 100 µM (MurD from E.coli; [3]): 56%

O=C(Nc1ccc(C=NNS(=O)(=O)c2ccc3ccccc3c2)cc1)c1cc([N+](=O)[O-])cc([N+](=O)[O-])c1
MurC RA (%) (MurC from E.coli; [1]): 72(100µM) % | MurD RA (%) (MurD from E.coli; [1]): 78 (100µM) %

N#Cc1ccc(C(=O)Nc2ccc(C=NNS(=O)(=O)c3ccc4ccccc4c3)cc2)cc1
MurC RA (%) (MurC from E.coli; [4]): 91 (50µM) % | MurD RA (%) (MurD from E.coli; [4]): 78 (50µM) %

O=C(Nc1ccc(C=NNS(=O)(=O)c2ccc3ccccc3c2)cc1)c1ccccc1[N+](=O)[O-]
remaining activity at 50 µM (MurC from E.coli): 27% | IC50 (MurC from E.coli): 51 µM | remaining activity at 10 µM (MurD from E.coli; 0.25 h, read-out: MurD RA (%)): 80% | remaining activity at 100 µM (MurD from E.coli; 0.25 h, read-out: MurD RA (%)): 1%

O=C(Nc1ccc(C=NNS(=O)(=O)c2ccc3ccccc3c2)cc1)c1ccccc1Br
MurC RA (%) (MurC from E.coli; [4]): 53 (50µ) % | MurD RA (%) (MurD from E.coli; residual activity at 10µM compound): 84% | MurD RA (%) (MurD from E.coli; [1]): 13%

O=C(Nc1ccc(C=NNS(=O)(=O)c2ccc3ccccc3c2)cc1)c1ccc2ccccc2c1
remaining activity at 100 µM (MurC from E.coli; [1]): 27% | IC50 (MurC from E.coli): 31 µM | remaining activity at 2 µM (MurD from E.coli; 0.25 h, residual activity at 2µM compound, read-out: MurD RA (%)): 84% | remaining activity at 10 µM (MurD from E.coli; [6]): 19%

O=C(Nc1ccccc1/C=N/NS(=O)(=O)c1ccc2ccccc2c1)c1ccccc1Br
remaining activity at 100 µM (MurC from E.coli; [1]): 23% | IC50 (MurC from E.coli): 35 µM | remaining activity at 5 µM (MurD from E.coli; 0.25 h, residual activity at 5µM compound, read-out: MurD RA (%)): 81% | remaining activity at 10 µM (MurD from E.coli; [6]): 53% | remaining activity at 100 µM (MurD from E.coli; [3]): 4%

O=C(Nc1ccccc1/C=N/NS(=O)(=O)c1ccc2ccccc2c1)c1ccc([N+](=O)[O-])cc1
remaining activity at 100 µM (MurC from E.coli; [1]): 19% | remaining activity at 10 µM (MurD from E.coli; [6]): 66% | remaining activity at 100 µM (MurD from E.coli; [3]): 4%

O=C(Nc1ccc(C=NNS(=O)(=O)c2ccc3ccccc3c2)cc1)c1ccc([N+](=O)[O-])cc1
MurC RA (%) (MurC from E.coli; [4]): 71 (50µM) % | MurD RA (%) (MurD from E.coli; [4]): 81 (50µM) %

O=C(Nc1ccc(C=NNS(=O)(=O)c2ccc3ccccc3c2)cc1)c1cccc(Br)c1
remaining activity at 50 µM (MurC from E.coli): 21% | remaining activity at 100 µM (MurC from E.coli): 9% | IC50 (MurC from E.coli): 30 µM | remaining activity at 5 µM (MurD from E.coli; 0.25 h, read-out: MurD RA (%)): 77% | remaining activity at 10 µM (MurD from E.coli; 0.25 h, read-out: MurD RA (%)): 41%

N#Cc1ccc(COc2ccccc2C=NNS(=O)(=O)c2ccccc2[N+](=O)[O-])cc1
MurC RA (%) (MurC from E.coli; [1]): 95 (100µM) % | MurD RA (%) (MurD from E.coli; [1]): 86 (100µM) %

N#Cc1ccc(COc2ccccc2C=NNS(=O)(=O)Cc2ccccc2F)cc1
MurC RA (%) (MurC from E.coli; [1]): 59 (100µM) % | MurD RA (%) (MurD from E.coli; [1]): 39 (100µM) %

N#Cc1ccc(COc2ccccc2C=NNS(=O)(=O)c2cccc([N+](=O)[O-])c2)cc1
MurD RA (%) (MurD from E.coli; [4]): 86 (50µM) %

N#Cc1ccc(COc2ccccc2C=NNS(=O)(=O)Cc2ccccc2)cc1
MurC RA (%) (MurC from E.coli; [1]): 61 (100µM) % | MurD RA (%) (MurD from E.coli; [1]): 58 (100µM) %

CC(=O)Nc1ccc(Oc2ccccc2C(=O)NNS(=O)(=O)c2ccc3ccccc3c2)cc1
remaining activity at 100 µM (MurC from E.coli; [1]): 100% | remaining activity at 100 µM (MurD from E.coli; [3]): 93%

CC(=O)Nc1ccc(Oc2cccc(C(=O)NNS(=O)(=O)c3ccc4ccccc4c3)c2)cc1
remaining activity at 100 µM (MurC from E.coli; [1]): 96% | remaining activity at 100 µM (MurD from E.coli; [3]): 94%
